Key:
[1] = Stability of folates under the acidic/basic conditions of sample work-up; type: physicochemical
Protocol: (§1) An aliquot of the resulting solution (50 μL) was then analyzed by LC-MRM/MS.
5-FTHF and 10-FTHF undergo dehydration to 5,10-MTHF under acidic conditions in a pH-dependent manner (FIG. 1). In contrast, under neutral or alkaline pH conditions, 5,10-MTHF is converted into 10-FTHF, which then slowly interconverts with 5-FTHF. These different forms of folate are present in RBCs primarily in polyglutamated forms. […] This made it difficult to reliably quantify the individual amounts of 5-FTHF, 10-FTHF, and 5,10-MTHF in the RBCs. Conversion of 5-FTHF and 10-FTHF into 5,10-MTHF proceeded quantitatively at pH 1.5. As a result, it was possible to accurately quantify the pool of folate precursors available for conversion into 5,10-METHF simply by acidifying the RBC extract (FIG. 1). […] They were then acidified to pH 1.5 with 1M HCl ready for analysis of the 5-METHF precursors as 5,10-MTHF (FIG. 1). The [^13C5]-5-FTHF internal standard was quantitatively converted into [^13C5]-5,10-MTHF, which made it possible to accurately quantify the amount of unlabeled 5-FTHF and 10-FTHF, as well as any 5,10-MTHF that had been present in the sample originally. […] However, it is so rapidly utilized in cellular processes by enzymes such as MTHFR, serine hydroxymethyltransferase, and thymidylate synthase (FIG. 6) that it is unlikely to be present in significant quantities.

plasma folate = experiment: Plasma folates (LC-MRM/MS) before and after low dose MTX treatment of arthritis patients; type: in vivo, human; conditions: 24 wk of MTX, Caucasians, 119 pairs
Protocol: To each plasma sample (300 μL) was added water (200 μL) containing 1% ascorbic acid and 10 mM 2-mercaptoethanol. After the addition of 20 μL internal standard solution (150 pg/μL each of [^13C5]-FA, [^13C5]-THF, [^13C5]-5-MTHF, and [^13C5]-5-FTHF) the samples were thoroughly mixed. Water (1 mL) containing 1% ascorbic acid and 1% methanol was added prior to purification using SPE columns.
The following experiments were designed to assess the phenotypic changes elicited by low dose methotrexate (MTX) treatment. MTX has been widely used as the anti-inflammatory and immunomodulatory agent for the treatment of patients with rheumatoid arthritis and other inflammatory disorders by weekly low-dose (7.5-25 mg).
This indicates a quantitative and qualitative modification of folate phenotype (even though folic acid supplements were prescribed along with the MTX) that results in elevated MCP-1 concentrations (p<0.0001).

RBC folate = RBC folate derivatives (LC-MRM/MS) before and after low dose MTX treatment of arthritis patients; type: in vivo, human; conditions: ratio, 24 wk of MTX, Caucasians, 115 pairs
Protocol: Eight calibration standards were prepared in the range 4.5 to 900 nmol/L in 1% ascorbic acid and 10 mM 2-mercaptoethanol (to prevent oxidation). To 500 μL of whole blood (1:10 diluted with 1% ascorbic acid) was added 20 μL of internal standard solution (150 pg/μL each of [^13C5]-FA, [^13C5]-THF, [^13C5]-5-MTHF, and [^13C5]-5-FTHF). For hydrolysis of folylpolyglutamates, 1N sodium hydroxide (6 μL) was added to each tube to adjust the pH to 5.0 and the samples were mixed immediately. In selected experiments, pteroylhepta-γ-L-glutamic acid (5 ng) was added to replicate […] RBC preparations from five different subjects in order to monitor the efficiency of folylpolyglutamate hydrolysis. […]
as §1
RBC folate concentrations were calculated according to the method of Lamers et al.(2006, Am. J. Clin. Nutr. 84(1):156-61): RBC folate={(whole blood folate×100)−[plasma folate×(100−hematocrit)]}/hematocrit.
Serum MCP-1 levels were measured using a human MCP-1 ELISA kit (BD Biosciences) according to the manufacturer's instructions. Total homocysteine (tHcy) and both plasma and red blood cell (RBC) folate derivatives were measured using stable isotope dilution liquid chromatography, multiple reaction monitoring, mass spectrometry (LC/MRM/MS) as described elsewhere herein. […]

Row | SMILES | Stability under both acidic and basic conditions [1] | Plasma FA (mean ± SD) (plasma folate; baseline 7.10 ± 26.62, folic acid supplements prescribed along with MTX) | Plasma 5MTH (mean ± SD) (plasma folate; baseline 53.14 ± 31.14) | RBC (5,10MT/5MTH) (mean ± SD) (RBC folate; baseline 0.026 ± 0.095) | RBC(THF/5MTH) (mean ± SD) (RBC folate; baseline 0.118 ± 0.387)
1 | Nc1nc2c(c(=O)[nH]1)N1CN(c3ccc(C(=O)N[C@@H](CCC(=O)O)C(=O)O)cc3)CC1CN2 (some centres unmarked) [5,10-METHF, 5,10-methylenetetrahydrofolic acid] | extremely unstable |  |  |  | 
2 | CN(Cc1cnc2nc(N)nc(N)c2n1)c1ccc(C(=O)N[C@@H](CCC(=O)O)C(=O)O)cc1 [MTX, methotrexate] |  | 36.20 ± 63.60 | 39.90 ± 31.51 | 0.051 ± 0.241 | 0.175 ± 0.757
